Experimental data taken from ChEMBL document CHEMBL5291721, “A preclinical secondary pharmacology resource illuminates target-adverse drug reaction associations of marketed drugs” (Nat Commun, 2023).

Key:
[1] = molecular target: Gamma-aminobutyric acid receptor subunit alpha-1 (Rattus norvegicus, UniProt P62813); type: functional
[2] = molecular target: T1, Alpha-2B adrenergic receptor (Homo sapiens, UniProt P18089)
T1 sequence (P18089 whole entry): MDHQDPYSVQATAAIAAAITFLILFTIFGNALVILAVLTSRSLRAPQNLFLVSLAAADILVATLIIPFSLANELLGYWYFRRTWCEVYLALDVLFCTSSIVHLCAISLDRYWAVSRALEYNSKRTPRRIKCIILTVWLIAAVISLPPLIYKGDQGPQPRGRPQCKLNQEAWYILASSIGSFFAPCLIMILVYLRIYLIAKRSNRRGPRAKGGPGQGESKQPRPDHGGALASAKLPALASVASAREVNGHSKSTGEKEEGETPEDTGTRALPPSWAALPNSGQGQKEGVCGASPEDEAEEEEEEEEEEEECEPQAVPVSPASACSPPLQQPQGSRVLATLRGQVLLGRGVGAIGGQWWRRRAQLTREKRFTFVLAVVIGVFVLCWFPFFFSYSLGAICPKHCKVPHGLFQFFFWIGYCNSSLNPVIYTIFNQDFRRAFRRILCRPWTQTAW

[3] = molecular target: T2, Cholecystokinin receptor type A (Homo sapiens, UniProt P32238)
T2 sequence (P32238 whole entry): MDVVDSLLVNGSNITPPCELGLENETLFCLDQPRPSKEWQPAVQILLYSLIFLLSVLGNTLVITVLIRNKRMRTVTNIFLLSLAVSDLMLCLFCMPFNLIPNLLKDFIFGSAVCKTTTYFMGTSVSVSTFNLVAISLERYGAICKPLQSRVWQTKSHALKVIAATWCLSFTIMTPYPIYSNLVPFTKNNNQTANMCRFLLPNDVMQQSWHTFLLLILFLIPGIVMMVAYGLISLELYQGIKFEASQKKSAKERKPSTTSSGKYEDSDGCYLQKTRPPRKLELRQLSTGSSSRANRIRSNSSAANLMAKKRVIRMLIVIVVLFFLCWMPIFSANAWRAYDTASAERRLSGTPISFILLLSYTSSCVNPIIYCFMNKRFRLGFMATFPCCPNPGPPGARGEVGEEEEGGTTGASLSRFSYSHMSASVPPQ

Motilin receptor = Motilin receptor (Homo sapiens, UniProt O43193)
Chain of Motilin receptor (O43193 whole entry): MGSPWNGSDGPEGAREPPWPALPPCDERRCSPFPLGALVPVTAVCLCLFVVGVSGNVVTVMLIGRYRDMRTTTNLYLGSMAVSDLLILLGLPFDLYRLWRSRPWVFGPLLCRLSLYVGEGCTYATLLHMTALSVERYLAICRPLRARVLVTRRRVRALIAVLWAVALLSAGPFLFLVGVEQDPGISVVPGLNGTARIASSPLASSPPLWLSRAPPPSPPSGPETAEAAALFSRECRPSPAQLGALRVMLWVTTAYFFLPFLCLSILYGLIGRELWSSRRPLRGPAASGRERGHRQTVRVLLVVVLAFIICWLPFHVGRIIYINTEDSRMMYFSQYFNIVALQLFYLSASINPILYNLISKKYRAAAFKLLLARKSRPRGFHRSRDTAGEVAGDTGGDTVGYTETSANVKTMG

[4] = molecular target: cGMP-inhibited 3',5'-cyclic phosphodiesterase 3A (Homo sapiens, UniProt Q14432); type: functional
Chain of cGMP-inhibited 3',5'-cyclic phosphodiesterase 3A (Q14432 whole entry): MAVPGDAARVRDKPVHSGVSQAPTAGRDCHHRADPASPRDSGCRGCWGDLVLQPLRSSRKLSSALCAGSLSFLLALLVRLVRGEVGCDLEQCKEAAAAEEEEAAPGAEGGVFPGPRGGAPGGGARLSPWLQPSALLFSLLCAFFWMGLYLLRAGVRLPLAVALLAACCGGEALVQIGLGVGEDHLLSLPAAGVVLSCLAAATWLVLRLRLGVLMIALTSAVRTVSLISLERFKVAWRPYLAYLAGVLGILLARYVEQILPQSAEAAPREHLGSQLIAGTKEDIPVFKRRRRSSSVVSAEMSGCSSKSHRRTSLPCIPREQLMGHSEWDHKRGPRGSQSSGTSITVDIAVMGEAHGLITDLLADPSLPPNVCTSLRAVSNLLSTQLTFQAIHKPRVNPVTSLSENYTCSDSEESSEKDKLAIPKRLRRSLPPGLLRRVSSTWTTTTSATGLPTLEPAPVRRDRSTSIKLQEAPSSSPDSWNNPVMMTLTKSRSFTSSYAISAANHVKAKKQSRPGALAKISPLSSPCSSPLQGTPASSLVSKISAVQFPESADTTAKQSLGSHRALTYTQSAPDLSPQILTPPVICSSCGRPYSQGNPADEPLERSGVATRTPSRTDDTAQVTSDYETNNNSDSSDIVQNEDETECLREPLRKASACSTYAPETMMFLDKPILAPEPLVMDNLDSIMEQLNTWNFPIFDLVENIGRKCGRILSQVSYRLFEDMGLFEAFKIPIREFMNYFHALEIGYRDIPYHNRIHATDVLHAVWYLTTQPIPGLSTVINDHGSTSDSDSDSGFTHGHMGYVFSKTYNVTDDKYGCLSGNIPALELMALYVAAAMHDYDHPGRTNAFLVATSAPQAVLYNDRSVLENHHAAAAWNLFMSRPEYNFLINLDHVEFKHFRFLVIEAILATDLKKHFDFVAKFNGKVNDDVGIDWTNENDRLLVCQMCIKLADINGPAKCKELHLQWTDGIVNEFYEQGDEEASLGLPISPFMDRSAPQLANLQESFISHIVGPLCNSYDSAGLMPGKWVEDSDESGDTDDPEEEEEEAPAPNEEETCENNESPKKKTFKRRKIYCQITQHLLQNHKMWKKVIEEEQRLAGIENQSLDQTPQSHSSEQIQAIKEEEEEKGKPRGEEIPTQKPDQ

Thromboxane A2 receptor = molecular target: T3, Thromboxane A2 receptor (Homo sapiens, UniProt P21731)
T3 sequence (P21731 whole entry): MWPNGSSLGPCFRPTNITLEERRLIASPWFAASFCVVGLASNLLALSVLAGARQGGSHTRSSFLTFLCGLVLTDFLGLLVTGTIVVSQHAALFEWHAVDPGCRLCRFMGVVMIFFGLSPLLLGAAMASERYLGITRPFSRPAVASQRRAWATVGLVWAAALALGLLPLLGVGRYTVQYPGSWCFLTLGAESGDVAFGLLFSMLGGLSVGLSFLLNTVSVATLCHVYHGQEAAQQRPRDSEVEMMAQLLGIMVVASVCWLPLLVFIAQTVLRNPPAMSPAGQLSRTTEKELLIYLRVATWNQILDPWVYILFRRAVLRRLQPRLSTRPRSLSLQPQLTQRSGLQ

[5] = molecular target: T4, Alpha-2C adrenergic receptor (Homo sapiens, UniProt P18825); type: functional
T4 sequence (P18825 whole entry): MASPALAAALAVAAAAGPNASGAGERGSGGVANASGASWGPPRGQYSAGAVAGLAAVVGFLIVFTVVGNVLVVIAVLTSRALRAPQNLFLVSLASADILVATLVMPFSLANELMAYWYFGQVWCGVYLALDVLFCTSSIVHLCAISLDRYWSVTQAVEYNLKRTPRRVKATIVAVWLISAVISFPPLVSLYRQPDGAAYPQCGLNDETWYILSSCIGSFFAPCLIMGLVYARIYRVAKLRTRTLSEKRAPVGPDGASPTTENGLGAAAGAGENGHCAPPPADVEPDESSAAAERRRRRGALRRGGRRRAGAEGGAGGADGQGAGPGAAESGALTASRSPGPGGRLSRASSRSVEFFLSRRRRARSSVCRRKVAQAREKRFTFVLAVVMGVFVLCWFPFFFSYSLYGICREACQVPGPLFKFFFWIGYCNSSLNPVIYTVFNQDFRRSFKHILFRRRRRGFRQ

[6] = molecular target: T5, 5-hydroxytryptamine receptor 2C (Homo sapiens, UniProt P28335)
T5 sequence (P28335 whole entry): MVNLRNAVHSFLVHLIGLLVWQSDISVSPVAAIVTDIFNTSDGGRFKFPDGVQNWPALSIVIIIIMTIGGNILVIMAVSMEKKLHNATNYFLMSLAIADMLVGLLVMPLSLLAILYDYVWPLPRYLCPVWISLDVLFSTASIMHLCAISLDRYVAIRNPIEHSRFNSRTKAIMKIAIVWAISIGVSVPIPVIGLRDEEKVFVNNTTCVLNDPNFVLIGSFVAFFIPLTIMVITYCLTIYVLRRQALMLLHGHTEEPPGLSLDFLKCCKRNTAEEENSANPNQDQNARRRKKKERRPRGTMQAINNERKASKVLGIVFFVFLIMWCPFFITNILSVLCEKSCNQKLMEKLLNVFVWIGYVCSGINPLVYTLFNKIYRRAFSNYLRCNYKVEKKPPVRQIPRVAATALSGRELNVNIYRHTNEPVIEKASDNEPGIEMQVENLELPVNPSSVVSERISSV

Mu-type opioid receptor = Mu-type opioid receptor (Homo sapiens, UniProt P35372); experiment: biochemical; type: functional
Chain of Mu-type opioid receptor (P35372 whole entry): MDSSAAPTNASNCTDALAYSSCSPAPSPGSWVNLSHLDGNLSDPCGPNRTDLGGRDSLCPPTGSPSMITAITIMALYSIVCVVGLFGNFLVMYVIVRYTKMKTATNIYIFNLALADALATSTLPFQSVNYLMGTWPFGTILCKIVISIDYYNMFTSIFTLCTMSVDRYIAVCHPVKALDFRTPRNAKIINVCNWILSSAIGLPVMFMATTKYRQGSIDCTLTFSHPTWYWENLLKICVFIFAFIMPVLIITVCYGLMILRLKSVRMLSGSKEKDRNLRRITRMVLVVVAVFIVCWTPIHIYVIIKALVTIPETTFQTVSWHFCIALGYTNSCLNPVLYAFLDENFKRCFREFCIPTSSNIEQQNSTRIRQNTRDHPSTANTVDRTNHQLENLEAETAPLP

Adenosine receptor A3 = molecular target: T6, Adenosine receptor A3 (Homo sapiens, UniProt P0DMS8)
T6 sequence (P0DMS8 whole entry): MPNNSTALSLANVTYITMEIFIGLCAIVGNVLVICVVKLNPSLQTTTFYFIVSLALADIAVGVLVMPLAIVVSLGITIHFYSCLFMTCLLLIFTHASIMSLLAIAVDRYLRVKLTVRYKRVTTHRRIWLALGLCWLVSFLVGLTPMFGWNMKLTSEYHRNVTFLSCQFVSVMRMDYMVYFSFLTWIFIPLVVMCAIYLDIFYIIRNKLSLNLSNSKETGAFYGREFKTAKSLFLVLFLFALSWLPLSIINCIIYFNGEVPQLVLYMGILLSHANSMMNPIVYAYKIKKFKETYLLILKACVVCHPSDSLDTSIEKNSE
Further: assay procedure not described here.

Chain of Gamma-aminobutyric acid receptor subunit alpha-1 (P62813 whole entry): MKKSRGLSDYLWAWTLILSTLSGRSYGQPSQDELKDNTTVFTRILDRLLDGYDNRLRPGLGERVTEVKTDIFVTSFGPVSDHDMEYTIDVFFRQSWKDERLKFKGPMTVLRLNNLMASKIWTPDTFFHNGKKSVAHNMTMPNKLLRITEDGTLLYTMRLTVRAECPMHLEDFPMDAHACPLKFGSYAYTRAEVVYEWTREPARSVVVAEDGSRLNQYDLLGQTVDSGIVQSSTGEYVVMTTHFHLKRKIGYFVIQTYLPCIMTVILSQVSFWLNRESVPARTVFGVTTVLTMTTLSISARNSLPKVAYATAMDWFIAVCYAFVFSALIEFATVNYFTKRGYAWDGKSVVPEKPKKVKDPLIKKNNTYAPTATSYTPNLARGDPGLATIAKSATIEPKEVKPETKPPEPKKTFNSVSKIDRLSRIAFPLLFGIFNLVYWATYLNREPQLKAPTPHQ

SMILES	AC50 [1]	AC50 [2]	AC50 [3]	AC50 (Motilin receptor)	AC50 [4]	AC50 (Thromboxane A2 receptor)	AC50 [5]	AC50 [6]	AC50 (Mu-type opioid receptor)	AC50 (Adenosine receptor A3)
C[N+]1(C)CCC(=C(c2ccccc2)c2ccccc2)CC1	> 10 µM	> 10 µM	> 30 µM	> 30 µM	> 30 µM	> 30 µM	> 10 µM	> 30 µM	–	–
C[N+](C)(C)CCOP(=O)([O-])OC[C@H](O)CO	> 30 µM	–	> 30 µM	> 30 µM	> 30 µM	> 30 µM	> 30 µM	> 30 µM	> 30 µM	–
CCC1(c2ccc(N)cc2)CCC(=O)NC1=O (stereo not given) [AMINOGLUTETHIMIDE]	> 30 µM	–	> 30 µM	> 30 µM	10 µM	> 30 µM	> 30 µM	> 30 µM	> 30 µM	–
CC(=O)OC[C@H]1O[C@@H](n2ncc(=O)[nH]c2=O)[C@H](OC(C)=O)[C@@H]1OC(C)=O [AZARIBINE]	–	–	–	–	–	–	–	–	–	> 30 µM
CC(Cc1cccc(C(F)(F)F)c1)NCCOC(=O)c1ccccc1 (stereo not given) [BENFLUOREX]	–	–	> 30 µM	> 30 µM	–	> 30 µM	2.41 µM	3.5 µM	11 µM	–
CCOC(=O)c1ccc(N)cc1 [BENZOCAINE]	> 10 µM	–	> 10 µM	> 10 µM	> 30 µM	> 10 µM	> 10 µM	> 30 µM	–	–
CC(C)(Oc1ccc(CCNC(=O)c2ccc(Cl)cc2)cc1)C(=O)O [BEZAFIBRATE]	> 10 µM	–	> 10 µM	> 10 µM	> 30 µM	> 10 µM	> 10 µM	> 30 µM	–	–
CC(O)(CS(=O)(=O)c1ccc(F)cc1)C(=O)Nc1ccc(C#N)c(C(F)(F)F)c1 (stereo not given) [BICALUTAMIDE]	> 10 µM	–	> 30 µM	> 30 µM	> 10 µM	> 30 µM	13 µM	> 30 µM	–	–
NC[C@H]1CC[C@H](C(=O)Oc2ccc(CCC(=O)O)cc2)CC1 [CETRAXATE]	> 30 µM	–	–	–	> 30 µM	–	> 30 µM	> 30 µM	> 30 µM	–
C=C1CC[C@H](O)C/C1=C/C=C1\CCC[C@]2(C)[C@@H]([C@H](C)CCCC(C)C)CC[C@@H]12 [CHOLECALCIFEROL]	–	–	–	–	–	–	–	–	–	14.8 µM
C[C@H](CCC(=O)O)[C@H]1CC[C@H]2[C@@H]3[C@H](O)C[C@@H]4C[C@H](O)CC[C@]4(C)[C@H]3C[C@H](O)[C@]12C [CHOLIC ACID]	–	–	–	–	–	–	–	–	–	> 30 µM
CC(=O)O[C@]1(C(C)=O)CC[C@H]2[C@@H]3C=C(Cl)C4=CC(=O)[C@@H]5C[C@@H]5[C@]4(C)[C@H]3CC[C@@]21C [CYPROTERONE ACETATE]	> 10 µM	–	> 30 µM	> 10 µM	> 30 µM	> 30 µM	> 10 µM	> 30 µM	–	–
CN[C@]1(c2ccccc2Cl)CCCCC1=O [ESKETAMINE]	> 30 µM	–	> 30 µM	> 30 µM	> 30 µM	> 30 µM	> 30 µM	> 30 µM	> 30 µM	–
CC(O)(P(=O)(O)O)P(=O)(O)O [ETIDRONIC ACID]	–	–	–	–	–	–	–	–	–	> 30 µM
CCOC(=O)C1=C(C)NC(C)=C(C(=O)OCC)C1c1ccccc1/C=C/C(=O)OC(C)(C)C [LACIDIPINE]	> 30 µM	–	> 30 µM	> 30 µM	> 30 µM	> 30 µM	> 30 µM	> 30 µM	> 30 µM	–
CCC[C@@H]1C[C@@H](C(=O)N[C@@H]([C@H]2O[C@H](SC)[C@H](O)[C@@H](O)[C@H]2O)[C@@H](C)O)N(C)C1 [LINCOMYCIN]	> 10 µM	–	> 10 µM	> 10 µM	> 30 µM	> 10 µM	> 10 µM	> 30 µM	> 30 µM	–
CN(Cc1cnc2nc(N)nc(N)c2n1)c1ccc(C(=O)N[C@@H](CCC(=O)O)C(=O)O)cc1 [METHOTREXATE]	> 10 µM	–	> 30 µM	> 10 µM	> 30 µM	> 30 µM	> 10 µM	> 30 µM	–	–
Cc1ccccc1N1C(=O)c2cc(S(N)(=O)=O)c(Cl)cc2NC1C (stereo not given) [METOLAZONE]	> 10 µM	–	> 10 µM	> 10 µM	> 30 µM	> 10 µM	> 10 µM	> 30 µM	> 30 µM	–
O=C(O)c1cccnc1Nc1cccc(C(F)(F)F)c1 [NIFLUMIC ACID]	> 10 µM	–	> 10 µM	> 10 µM	> 30 µM	> 10 µM	> 10 µM	> 30 µM	> 30 µM	–
NNCCc1ccccc1 [PHENELZINE]	–	–	–	–	–	–	–	–	–	> 30 µM
O=C1c2ccccc2C(=O)C1c1ccccc1 [PHENINDIONE]	> 10 µM	–	> 10 µM	> 10 µM	> 30 µM	> 10 µM	> 10 µM	> 30 µM	–	–
CC(C)c1cccc(C(C)C)c1O [PROPOFOL]	–	–	> 30 µM	> 30 µM	> 30 µM	–	> 30 µM	> 30 µM	–	–
COC(=O)[C@H]1[C@H]2C[C@@H]3c4[nH]c5cc(OC)ccc5c4CCN3C[C@H]2C[C@@H](OC(=O)c2cc(OC)c(OC)c(OC)c2)[C@@H]1OC [RESERPINE]	> 10 µM	–	> 10 µM	> 10 µM	> 30 µM	> 10 µM	> 30 µM	> 30 µM	> 30 µM	17.7 µM
C[C@]12CCC(=O)C[C@@H]1CC[C@@H]1[C@@H]2CC[C@]2(C)[C@@H](O)CC[C@@H]12 [STANOLONE]	> 30 µM	–	> 30 µM	> 30 µM	> 30 µM	> 30 µM	> 30 µM	> 30 µM	> 30 µM	–
Cc1ccc(C(=O)C(C)CN2CCCCC2)cc1 (stereo not given) [TOLPERISONE]	–	–	–	–	–	–	–	–	–	> 30 µM
